From patent US6844151B1, “Methods for production of arrays with modified oligonucleotide and polynucleotide compositions” (Oligos Etc. Inc., priority 1999, dated 2005)
[pOEt] = p-ethoxy (ethyl phosphotriester) internucleotide linkage

Tests used:
[1] = test system: Regular RNA 20-mer oligonucleotide SEQ ID NO:1; test: Tm of 20-mer duplexes, modified SEQ ID NO:2 strand bound to Regular RNA SEQ ID NO:1; format: binding; conditions: duplex with Regular RNA SEQ ID NO:1; 4 μM each; 50 mM NaCl, 10 mM PO4 buffer, pH 7.4
Protocol: (§1) The stability of duplexes having 2′-substituted nucleotides versus duplexes without such modification was tested by examining the Tm of these complexes. 4 μM each of 20-mer oligonucleotide (5′-ggt ggt tcc tcc tca gtc gg-3′; SEQ ID NO:1) and its complement (5′- ccg act gag aag gaa cca cc-3;SEQ ID NO:2) were bound in a solution of 50 mM NaCl, 10 mM PO4 buffer, pH 7.4. Each of the nucleotides of the oligonucleotide had the same 2′ group. Following binding, the melting temperature was determined as described. (See L. L. Cummins et al., Nucleic Acids Research 23:2019-2024 (1995).

[2] = test system: Regular DNA 20-mer oligonucleotide SEQ ID NO:1; test: Tm of 20-mer duplexes, modified SEQ ID NO:2 strand bound to Regular DNA SEQ ID NO:1; format: binding; conditions: duplex with Regular DNA SEQ ID NO:1; 4 μM each; 50 mM NaCl, 10 mM PO4 buffer, pH 7.4
Protocol: as §1

Row | Substance | Tm [1] [°C] | Tm [2] [°C]
1 | Regular DNA: unmodified DNA 20-mer, SEQ ID NO:2 (5′-ccg act gag aag gaa cca cc-3′) (CCGACTGAGAAGGAACCACC; DNA, backbone not given here) [reference compound] | 66 | –
2 | 2′-O-methyl: SEQ ID NO:2 20-mer, every nucleotide with 2′-O-methyl group (CCGACTGAGAAGGAACCACC; all 2'-O-methyl, backbone and T or U not given here) | 79 | –
3 | p-ethoxy DNA: SEQ ID NO:2 20-mer as p-ethoxy DNA (CCGACTGAGAAGGAACCACC; DNA, all [pOEt], methylation of C not given here) | – | 55
4 | p-ethoxy 2′-O-methyl: SEQ ID NO:2 20-mer as p-ethoxy 2′-O-methyl (CCGACTGAGAAGGAACCACC; all 2'-O-methyl, all [pOEt], T or U not given here) | 71 | –
5 | p-ethoxy RNA: SEQ ID NO:2 20-mer as p-ethoxy RNA (CCGACTGAGAAGGAACCACC; RNA, all [pOEt], T or U not given here) | 56 | –
